The nature of series [1]: Determination of acute toxicity (LD50, oral, mice). To be noted: mouse, in vivo, oral administration. How it is done: (2) Determination of Acute Toxicity
The lethal dose, LD50, of the compounds of Examples 1-8 was evaluated in mice after oral administration.

Series [2] concerns ulcers in rats at the stomach level. The series is described as follows: Anti-ulcer activity, Shay method (pylorus ligature in rats). To be noted: oral, about 16 hours after treatment. It is filed as in vivo. From the text: (1) Determination of Anti-Ulcer Activity
The method used is described by SHAY et al. in Gastroenterology, 5, 43 (1945).
The Shay method consists of inducing ulcers in rats at the stomach level by ligature of the pylorus.
The animals are anesthetized with ether. A longitudinal incision is made about 1 cm below the sternum, the glandular part of the stomach and the duodenum are exposed, and a ligature is placed several mm below the pylorus. The muscular sheet is left as it is, and the skin is sutured with two clips.
As soon as possible afterwards, the animals receive the dispersive or the substance to be studied via the mouth in a volume of 0.5 ml/100 g and are kept without food or drink until sacrificed by carotid bleeding, which takes place about 16 hours after the treatment.
Before removing the stomach, a ligature is placed above the cardia.
The gastric liquid is collected in order to measure the pH.
The stomach is then opened along the major curvature, rinsed with physiological serum, and spread out on millimeter paper to be examined under a binocular magnifier.
The severity of the lesions is evaluated macroscopically and graded from 0 to 4 for each stomach.
The mean intensity of ulcerations is determined for each group of rats, and the protection is calculated by taking the ratio of the mean index of the treated group to the mean index of the control group.
The value of the gastric pH for the treated and control animals are likewise determined.

[3] abbreviates: Rattus norvegicus, 0.8 mg/kg, read-out: Ulcerations % of protection with respect to controls.
Setting [4] is: Rattus norvegicus, 4 mg/kg, read-out: Ulcerations % of protection with respect to controls.
Setting [5] is: Rattus norvegicus, 20 mg/kg, read-out: Ulcerations % of protection with respect to controls.
[6] abbreviates: Rattus norvegicus, 0.4 mg/kg, read-out: Ulcerations % of protection with respect to controls.
[7] abbreviates: Rattus norvegicus, 2 mg/kg, read-out: Ulcerations % of protection with respect to controls.
The mark [8] stands for this setting: Rattus norvegicus, 10 mg/kg, read-out: Ulcerations % of protection with respect to controls.
The mark [9] stands for this setting: Rattus norvegicus, 50 mg/kg, read-out: Ulcerations % of protection with respect to controls.

As usually defined, the LD50 is the dose at which mortality reaches 50%. A higher LD50 goes with lower toxicity. For `COc1ccc(C(=O)/C=C/C(=O)O)cc1OC` [Example 1, (E) 4-(3,4-dimethoxyphenyl)-4-oxo-2-butenoic acid], the LD50 in series [1] is ~500 mg/kg. Further, in series [2] (setting [3]), the inhibition in vivo at 0.8 mg/kg came out at 0%. Also, the inhibition in vivo at 4 mg/kg in series [2] (setting [4]) came to 83%. Besides, the inhibition in vivo at 20 mg/kg in series [2] (setting [5]) was determined as 100%. In addition, the “pH of gastric liquid, treated animals” value is reported as 2.9 in series [2] (0.8 mg/kg), 2.6 in series [2] (4 mg/kg) and 4.3 in series [2] (20 mg/kg).

As for `O=C(O)/C=C/C(=O)c1ccc(Cl)cc1` [Example 2, (E) 4-(4-chlorophenyl)-4-oxo-2-butenoic acid], the LD50 in series [1] is ~200 mg/kg. Moreover, the inhibition in vivo at 1 mg/kg in series [2] (Rattus norvegicus, 1 mg/kg, read-out: Ulcerations % of protection with respect to controls) worked out at 0%. For the same compound, the inhibition in vivo at 5 mg/kg in series [2] (Rattus norvegicus, 5 mg/kg, read-out: Ulcerations % of protection with respect to controls) came out at 57%. The inhibition in vivo at 25 mg/kg in series [2] (Rattus norvegicus, 25 mg/kg, read-out: Ulcerations % of protection with respect to controls) was 100%. Moreover, the “pH of gastric liquid, treated animals” value was 3.0 in series [2] (1 mg/kg), 3.0 in series [2] (5 mg/kg) and 5.6 in series [2] (25 mg/kg).

Turning to `O=C(O)/C=C/C(=O)c1ccc(F)cc1` [Example 3, (E) 4-(4-fluorophenyl)-4-oxo-2-butenoic acid], the LD50 in series [1] was ~300 mg/kg. For the same compound, in series [2] (setting [6]), the inhibition in vivo at 0.4 mg/kg was determined as 20%. The inhibition in vivo at 2 mg/kg in series [2] (setting [7]) was determined as 43%. For the same compound, the inhibition in vivo at 10 mg/kg in series [2] (setting [8]) was determined as 100%. For the same compound, the “pH of gastric liquid, treated animals” value in series [2] (0.4 mg/kg) is recorded as 3.1; in series [2] (2 mg/kg), 2.8; in series [2] (10 mg/kg), 4.0.

Turning to `O=C(O)/C=C/C(=O)c1ccc(Cl)c(Cl)c1` [Example 4, (E) 4-(3,4-dichlorophenyl)-4-oxo-2-butenoic acid], the median lethal dose (LD50) in series [1] is ~500 mg/kg. In addition, the inhibition in vivo at 4 mg/kg in series [2] (setting [4]) was found to be 14%. The inhibition in vivo at 20 mg/kg in series [2] (setting [5]) was found to be 71%. Moreover, the “pH of gastric liquid, treated animals” value is 3.1 in series [2] (4 mg/kg) and 4.1 in series [2] (20 mg/kg).

With `O=C(O)/C=C/C(=O)c1ccccc1[N+](=O)[O-]` [Example 5, (E) 4-(2-nitrophenyl)-4-oxo-2-butenoic acid], the LD50 in series [1] is ~500 mg/kg. Moreover, in series [2] (setting [4]), the inhibition in vivo at 4 mg/kg amounted to 19%. In addition, the inhibition in vivo at 20 mg/kg in series [2] (setting [5]) was 100%. For the same compound, the “pH of gastric liquid, treated animals” value in series [2] (4 mg/kg) worked out at 3.3; in series [2] (20 mg/kg), 4.3.

Turning to `O=C(O)/C=C/C(=O)c1ccc(C(F)(F)F)cc1` [Example 6, (E) 4-(4-trifluoromethylphenyl)-4-oxo-2-butenoic acid], the median lethal dose (LD50) in series [1] was ~600 mg/kg. In series [2] (setting [3]), the inhibition in vivo at 0.8 mg/kg was 20%. The inhibition in vivo at 4 mg/kg in series [2] (setting [4]) came to 55%. Moreover, the inhibition in vivo at 20 mg/kg in series [2] (setting [5]) came out at 67%. Also, in series [2] (Rattus norvegicus, 100 mg/kg, read-out: Ulcerations % of protection with respect to controls), the inhibition in vivo at 100 mg/kg is 98%. The “pH of gastric liquid, treated animals” value is 1.4 in series [2] (0.8 mg/kg), 2.3 in series [2] (4 mg/kg), 2.8 in series [2] (20 mg/kg) and 6.3 in series [2] (100 mg/kg).

In the case of `COc1ccc(OC)c(C(=O)/C=C/C(=O)O)c1` [Example 7, (E) 4-(2,5-dimethoxyphenyl)-4oxo-2-butenoic acid], in series [1], the median lethal dose (LD50) was ~300 mg/kg. The inhibition in vivo at 0.4 mg/kg in series [2] (setting [6]) was 0%. The inhibition in vivo at 2 mg/kg in series [2] (setting [7]) stood at 93%. For the same compound, the inhibition in vivo at 10 mg/kg in series [2] (setting [8]) worked out at 88%. Further, the inhibition in vivo at 50 mg/kg in series [2] (setting [9]) worked out at 100%. Further, the “pH of gastric liquid, treated animals” value came out at 3.0 in series [2] (0.4 mg/kg), 2.8 in series [2] (2 mg/kg), 3.0 in series [2] (10 mg/kg) and 4.2 in series [2] (50 mg/kg).

With `O=C(O)/C=C/C(=O)c1ccc2c(c1)OCO2` [Example 8, (E) 4-(3,4-methylenedioxyphenyl)-4-oxo-2-butenoic acid], the LD50 in series [1] was ~400 mg/kg. For the same compound, the inhibition in vivo at 2 mg/kg in series [2] (setting [7]) stood at 33%. For the same compound, the inhibition in vivo at 10 mg/kg in series [2] (setting [8]) was 60%. Moreover, the inhibition in vivo at 50 mg/kg in series [2] (setting [9]) worked out at 100%. Also, the “pH of gastric liquid, treated animals” value in series [2] (2 mg/kg) was found to be 3.2; in series [2] (10 mg/kg), 3.3; in series [2] (50 mg/kg), 5.4.
